Assay: xn = mol fraction of the nth substance listed
Settings: Liquid, Bellows volumetry

C=CC [propene] + Cc1ccccc1
Settings | mass density [kg/m3]
422.8 K, 6300 kPa, x1 = 0.7612 | 383
422.8 K, 6800 kPa, x1 = 0.7612 | 392.4
422.8 K, 7500 kPa, x1 = 0.7612 | 405.5
422.8 K, 8900 kPa, x1 = 0.7612 | 424.5
422.8 K, 10600 kPa, x1 = 0.7612 | 441.8
422.8 K, 15400 kPa, x1 = 0.7612 | 476.7
422.8 K, 17400 kPa, x1 = 0.7612 | 484.1
422.8 K, 24400 kPa, x1 = 0.7612 | 508.8
422.8 K, 31000 kPa, x1 = 0.7612 | 527.4
422.8 K, 37800 kPa, x1 = 0.7612 | 543.1
422.8 K, 44900 kPa, x1 = 0.7612 | 556.7
422.8 K, 51600 kPa, x1 = 0.7612 | 566.8
422.8 K, 58200 kPa, x1 = 0.7612 | 576.2
422.8 K, 63200 kPa, x1 = 0.7612 | 583.4
422.8 K, 67200 kPa, x1 = 0.7612 | 588.5
424 K, 4500 kPa, x1 = 0.53 | 514
424 K, 4800 kPa, x1 = 0.53 | 516.1
424 K, 5300 kPa, x1 = 0.53 | 519
424 K, 5900 kPa, x1 = 0.53 | 522.7
424 K, 7100 kPa, x1 = 0.53 | 529
424 K, 8700 kPa, x1 = 0.53 | 535.9
424 K, 10400 kPa, x1 = 0.53 | 543
424 K, 17000 kPa, x1 = 0.53 | 563.7
424 K, 24000 kPa, x1 = 0.53 | 581.4
424 K, 30500 kPa, x1 = 0.53 | 594.5
425.2 K, 1300 kPa, x1 = 0.1159 | 668.8
425.2 K, 1600 kPa, x1 = 0.1159 | 669.7
425.2 K, 2200 kPa, x1 = 0.1159 | 671
425.2 K, 3200 kPa, x1 = 0.1159 | 673.2
425.2 K, 5400 kPa, x1 = 0.1159 | 678.2
425.2 K, 7000 kPa, x1 = 0.1159 | 681.3
425.2 K, 10300 kPa, x1 = 0.1159 | 688.2
425.2 K, 17100 kPa, x1 = 0.1159 | 700.5
425.2 K, 24000 kPa, x1 = 0.1159 | 712.3
425.2 K, 30700 kPa, x1 = 0.1159 | 721.9
425.2 K, 37600 kPa, x1 = 0.1159 | 730.7
425.2 K, 44700 kPa, x1 = 0.1159 | 738.6
425.2 K, 51400 kPa, x1 = 0.1159 | 745.7
425.2 K, 58400 kPa, x1 = 0.1159 | 752.3
425.2 K, 63100 kPa, x1 = 0.1159 | 756.7
425.2 K, 67000 kPa, x1 = 0.1159 | 760.1
474.3 K, 2200 kPa, x1 = 0.1159 | 604.5
474.3 K, 2900 kPa, x1 = 0.1159 | 607.4
474.3 K, 3700 kPa, x1 = 0.1159 | 610.3
474.3 K, 5300 kPa, x1 = 0.1159 | 616.2
474.3 K, 7200 kPa, x1 = 0.1159 | 622.2
474.3 K, 10500 kPa, x1 = 0.1159 | 632.3
474.3 K, 13900 kPa, x1 = 0.1159 | 641.4
474.3 K, 17400 kPa, x1 = 0.1159 | 650.5
474.3 K, 20400 kPa, x1 = 0.1159 | 657.2
474.3 K, 23700 kPa, x1 = 0.1159 | 664.4
474.3 K, 31100 kPa, x1 = 0.1159 | 678.2
474.3 K, 37400 kPa, x1 = 0.1159 | 688.7
474.3 K, 38000 kPa, x1 = 0.1159 | 689.6
474.3 K, 44800 kPa, x1 = 0.1159 | 700.1
474.3 K, 51300 kPa, x1 = 0.1159 | 708.8
474.4 K, 6700 kPa, x1 = 0.53 | 412.3
474.4 K, 7200 kPa, x1 = 0.53 | 423.9
474.4 K, 8100 kPa, x1 = 0.53 | 437.9
474.4 K, 9200 kPa, x1 = 0.53 | 450.2
474.4 K, 10700 kPa, x1 = 0.53 | 464.3
474.4 K, 13800 kPa, x1 = 0.53 | 487.2
474.4 K, 18000 kPa, x1 = 0.53 | 509
474.4 K, 23800 kPa, x1 = 0.53 | 531.7
474.4 K, 31300 kPa, x1 = 0.53 | 551.8
474.4 K, 37900 kPa, x1 = 0.53 | 566.1
474.4 K, 44400 kPa, x1 = 0.53 | 579
474.4 K, 51500 kPa, x1 = 0.53 | 591.3
474.4 K, 58400 kPa, x1 = 0.53 | 602.1
474.4 K, 63100 kPa, x1 = 0.53 | 608.9
474.4 K, 67200 kPa, x1 = 0.53 | 614.2
474.8 K, 7900 kPa, x1 = 0.7612 | 213.2
474.8 K, 8500 kPa, x1 = 0.7612 | 232.7
474.8 K, 9100 kPa, x1 = 0.7612 | 257.3
474.8 K, 9800 kPa, x1 = 0.7612 | 279.8
474.8 K, 10600 kPa, x1 = 0.7612 | 304.4
474.8 K, 11700 kPa, x1 = 0.7612 | 333.8
474.8 K, 12100 kPa, x1 = 0.7612 | 337.7
474.8 K, 14600 kPa, x1 = 0.7612 | 374.6
474.8 K, 17400 kPa, x1 = 0.7612 | 402.7
474.8 K, 24200 kPa, x1 = 0.7612 | 442.3
474.8 K, 31800 kPa, x1 = 0.7612 | 475
474.8 K, 37900 kPa, x1 = 0.7612 | 493.8
474.8 K, 44600 kPa, x1 = 0.7612 | 511.3
474.8 K, 51500 kPa, x1 = 0.7612 | 527.1
474.8 K, 58300 kPa, x1 = 0.7612 | 540
474.8 K, 63100 kPa, x1 = 0.7612 | 547.8
474.8 K, 67300 kPa, x1 = 0.7612 | 553.9
505.4 K, 7200 kPa, x1 = 0.53 | 291.1
505.4 K, 7700 kPa, x1 = 0.53 | 316.5
505.4 K, 8000 kPa, x1 = 0.53 | 328
505.4 K, 8700 kPa, x1 = 0.53 | 355.4
505.4 K, 9500 kPa, x1 = 0.53 | 376.8
505.4 K, 10600 kPa, x1 = 0.53 | 396.8
505.4 K, 13800 kPa, x1 = 0.53 | 435.7
505.4 K, 17400 kPa, x1 = 0.53 | 462.3
505.4 K, 24200 kPa, x1 = 0.53 | 495.4
505.4 K, 31500 kPa, x1 = 0.53 | 523.8
505.4 K, 37900 kPa, x1 = 0.53 | 540.2
505.4 K, 44600 kPa, x1 = 0.53 | 554.8
505.4 K, 51400 kPa, x1 = 0.53 | 568
505.4 K, 58400 kPa, x1 = 0.53 | 579.6
505.4 K, 62900 kPa, x1 = 0.53 | 587.4
505.4 K, 66800 kPa, x1 = 0.53 | 592.6
554.4 K, 4700 kPa, x1 = 0.1159 | 442.2
554.4 K, 5300 kPa, x1 = 0.1159 | 460
554.4 K, 6000 kPa, x1 = 0.1159 | 475.7
554.4 K, 6600 kPa, x1 = 0.1159 | 486
554.4 K, 7200 kPa, x1 = 0.1159 | 493.7
554.4 K, 9400 kPa, x1 = 0.1159 | 515.7
554.4 K, 10800 kPa, x1 = 0.1159 | 526.4
554.4 K, 17800 kPa, x1 = 0.1159 | 567.8
554.4 K, 24100 kPa, x1 = 0.1159 | 591.2
554.4 K, 30900 kPa, x1 = 0.1159 | 610.7
554.4 K, 37900 kPa, x1 = 0.1159 | 626.5
554.4 K, 44500 kPa, x1 = 0.1159 | 640.2
554.4 K, 51800 kPa, x1 = 0.1159 | 653
554.4 K, 58200 kPa, x1 = 0.1159 | 663.6
554.4 K, 63300 kPa, x1 = 0.1159 | 671.5
554.4 K, 67100 kPa, x1 = 0.1159 | 676.8
